Columns and labels:
[1] = test system: Caenorhabditis elegans; assay: C. elegans L1 nematicidal dose response, 5 day visual viability score (3-fold dilutions); format: in vivo; design: key: Dead: only stiff L1s (no movement); Dead (L4): worms are dead, but at a later larval stage; majority of worms are L1 (based on size); majority of worms are L2 (based on size); majority of worms are L3 (based on size); majority of worms are L4 (based on size); AD: majority of worms are adult; #AD: 5 adult worms or less; B!: sterile (0-25 progeny); B: low broodsize (25-100 progeny); ˜B: moderate broodsize (100-250 progeny); <: reduced broodsize (250-500 progeny); OK: no effect (˜1000+ progeny); conditions: for 5 Day Visual Score V6: 0.3 μM; for 5 Day Visual Score V5: 0.9 μM; for 5 Day Visual Score V4: 2.6 μM; for 5 Day Visual Score V3: 7.8 μM; for 5 Day Visual Score V2: 23.3 μM; for 5 Day Visual Score V1: 70 μM
Experimental: Caenorhabditis elegans adults were grown on Nematode Growth Medium (NGM) until they produced eggs, then the adults were removed.
The eggs were allowed to hatch, and the L1 larvae collected. See The Nematode Caenorhabditis elegans (1988) Cold Spring Harbor Laboratory Press. Using a Matrix Programmable Pipette, the L1s were distributed into 96-well tissue culture plates, 20 L1 in 50 μl NGM per well. Antibiotic/Antimyotic was added to each well, and 1% by weight E. coli strain HB101. The subject anthelmintic compounds were stored at 5 mM in 100% DMSO. 0.7 μl of compounds 1-31 were added to the left-most column of wells to yield a final concentration of 70 μM in 1.4% DMSO, with 1.4% DMSO only as the control. The compounds were then subjected to 5 more 3-fold dilutions from left to right to yield 6 column concentrations of 70 μM, 23.3 μM, 7.8 μM, 2.6 μM, 0.9 μM, and 0.3 μM. Plates were stored in air-tight Rubbermaid plastic boxes at 20° C. The nematodes had cleared all control wells by day 4, and nematode viability was scored by visual examination under a 100× dissecting microscope on day 5. A visual viability scoring system was used as follows:
Column VI has a compound concentration of 70 μM with sequential 3-fold dilutions reported in columns V2, V3, V4, V5, and V6, respectively, such that the V6 concentration was 0.3 μM.
(§1) The nematicidal activity of anthelmintic Compositions 48-68 were determined in accordance with the procedure outlined in Example 2.

[2] = test system: Caenorhabditis elegans; assay: Initial HTS Run (mOD, % Run, visual score); design: key to Initial HTS Run Visual Score: Dead: only stiff L1s (no movement); Dead (L4): worms are dead, but at a later larval stage; majority of worms are L1 (based on size); majority of worms are L2 (based on size); majority of worms are L3 (based on size); majority of worms are L4 (based on size); AD: majority of worms are adult; #AD: 5 adult worms or less; B!: sterile (0-25 progeny); B: low broodsize (25-100 progeny); ˜B: moderate broodsize (100-250 progeny); <: reduced broodsize (250-500 progeny); OK: no effect (˜1000+ progeny); conditions: in vivo
Experimental: as §1

[3] = test system: Caenorhabditis elegans; assay: Follow-up HTS Run (mOD, % Run, visual score); design: key to Follow-up HTS Run Visual Score: Dead: only stiff L1s (no movement); Dead (L4): worms are dead, but at a later larval stage; majority of worms are L1 (based on size); majority of worms are L2 (based on size); majority of worms are L3 (based on size); majority of worms are L4 (based on size); AD: majority of worms are adult; #AD: 5 adult worms or less; B!: sterile (0-25 progeny); B: low broodsize (25-100 progeny); ˜B: moderate broodsize (100-250 progeny); <: reduced broodsize (250-500 progeny); OK: no effect (˜1000+ progeny); conditions: in vivo
Experimental: as §1

[4] = test system: root-knot nematode, Meloidogyne incognita; conditions: in vivo; cited from earlier work
[5] = Table 3, procedure of Example 2

Structure (SMILES)	5 Day Visual Score V6 [1, 5]	5 Day Visual Score V5 [1, 5]	5 Day Visual Score V4 [1, 5]	5 Day Visual Score V3 [1, 5]	Initial HTS Run % Run [2]	Initial HTS Run mOD [2]	Follow-up HTS Run % Run [3]	Follow-up HTS Run Visual Score [3]	Follow-up HTS Run mOD [3]	5 Day Visual Score V2 [1, 5]	5 Day Visual Score V1 [1, 5]	Initial HTS Run Visual Score [2]	5 Day Visual Score V3 ([1]; scored day 5)	5 Day Visual Score V2 ([1]; scored day 5)	5 Day Visual Score V1 ([1]; scored day 5)	activity against the root-knot nematode [4]
CCCCCCCCS(=O)(=O)N1CCN(C(=O)c2cc(C(F)(F)F)cc(C(F)(F)F)c2)CC1C(=O)NCc1ccccc1 (centres unmarked) [AKC 165]	OK (no effect (˜1000+ progeny))	OK (no effect (˜1000+ progeny))	OK (no effect (˜1000+ progeny))	< (reduced broodsize (250-500 progeny))	115%	142 mOD	126%	Dead	203 mOD							
COc1ccc(CC(=O)N2CCN(S(=O)(=O)c3ccc(OC)c(OC)c3)C(C(=O)NCc3cc(C(F)(F)F)cc(C(F)(F)F)c3)C2)cc1OC (centres unmarked) [AKC 168]	OK (no effect (˜1000+ progeny))	OK (no effect (˜1000+ progeny))	OK (no effect (˜1000+ progeny))	OK (no effect (˜1000+ progeny))	90%	111 mOD	135%	3AD/˜B	217 mOD	OK (no effect (˜1000+ progeny))	L3/#AD/B!	5AD/B				
Cc1cccc2scc(CC(=O)Nc3nc(C(C)(C)C)cs3)c12 [AKC 170]	OK (no effect (˜1000+ progeny))	OK (no effect (˜1000+ progeny))	OK (no effect (˜1000+ progeny))	OK (no effect (˜1000+ progeny))	111%	136 mOD	139%	L4/AD/B!	223 mOD	#AD/	L2	L3				
CCCCCCCCS(=O)(=O)N1CCN(C(=O)C=Cc2cccc(C(F)(F)F)c2)CC1C(=O)NCc1ccc(C(F)(F)F)cc1 (centres unmarked) [AKC 171]				Dead	101%	124 mOD	111%	Dead	179 mOD	L2	Dead		Dead(L4)/#A	L2	Dead	
CCCCCCCCS(=O)(=O)N1CCN(C(=O)C=Cc2cccc(C(F)(F)F)c2)CC1C(=O)NCc1ccccc1C(F)(F)F (centres unmarked) [AKC 173]	OK (no effect (˜1000+ progeny))	OK (no effect (˜1000+ progeny))	OK (no effect (˜1000+ progeny))	OK (no effect (˜1000+ progeny))	98%	120 mOD	107%		172 mOD							
CC(C)(C)c1csc(NC(=O)CC2CCCc3ccccc32)n1 (centres unmarked) [AKC 175]	OK (no effect (˜1000+ progeny))	OK (no effect (˜1000+ progeny))	OK (no effect (˜1000+ progeny))	OK (no effect (˜1000+ progeny))	85%	104 mOD	99%	L4/AD/B!	159 mOD	OK (no effect (˜1000+ progeny))	< (reduced broodsize (250-500 progeny))	L4/AD/B				
CC[C@H](C)[C@H]1O[C@]2(CC(O)[C@@H]1C)C[C@@H]1C[C@@H](C/C=C(\C)[C@@H](OC3CC(OC)C(OC4CC(OC)C(O)C(C)O4)C(C)O3)[C@@H](C)/C=C/C=C3\CO[C@@H]4[C@H](O)C(C)=C[C@@H](C(=O)O1)[C@]34O)O2 (some centres unmarked) [Avermectin B2a]																active

— patent US20020016330A1, “Materials and methods for killing nematodes and nematode eggs” (priority 2000, published 2002)
